Results on three molecules are retold here after ChEMBL document CHEMBL3875228, “Rational Design of a Boron-Modified Triphenylethylene (GLL398) as an Oral Selective Estrogen Receptor Downregulator” (ACS Med Chem Lett, 2017).

Data set [1] in a line: Tmax in Sprague-Dawley rat at 10 mg/kg, po administered via gavage measured at 1 to 24 hrs post administration by HPLC-MS/MS analysis. The format is ADME, organism-based. The conditions noted are these: in vivo.
A short description of data set [2]: Half life in Sprague-Dawley rat at 10 mg/kg, po administered via gavage measured at 1 to 24 hrs post administration by HPLC-MS/MS analysis. Conditions: in vivo. The class given is ADME, organism-based.
A short description of data set [3]: Cmax in Sprague-Dawley rat at 10 mg/kg, po administered via gavage measured at 1 to 24 hrs post administration by HPLC-MS/MS analysis. The class given is ADME, organism-based. Also noted: dose 10 mg/kg, route oral. The conditions noted are these: in vivo.
The nature of data set [4]: Half life in Sprague-Dawley rat assessed as GW7604 at 10 mg/kg, po administered via gavage measured at 1 to 24 hrs post administration by HPLC-MS/MS analysis. The format is ADME, organism-based. Conditions: in vivo.
Data set [5] is described as follows: AUC in Sprague-Dawley rat at 10 mg/kg, po administered via gavage measured at 1 to 24 hrs post administration by HPLC-MS/MS analysis. The format is ADME, organism-based. The conditions noted are these: in vivo.
The nature of data set [6]: Cmax in Sprague-Dawley rat assessed as GW7604 at 10 mg/kg, po administered via gavage measured at 1 to 24 hrs post administration by HPLC-MS/MS analysis. The class given is ADME, organism-based. More on the design: dose 10 mg/kg, route oral. Conditions: in vivo.
Data set [7] can be described thus: AUC in Sprague-Dawley rat assessed as GW7604 at 10 mg/kg, po administered via gavage measured at 1 to 24 hrs post administration by HPLC-MS/MS analysis. The class given is ADME, organism-based. Conditions: in vivo.
Data set [8] is described as follows: cells. Conditions: Homo sapiens, MCF7, 120 h.
Description: Cytotoxicity against human MCF7 cells assessed as reduction in cell viability after 5 days by Coulter counting method
Data set [9] is described as follows: cells. The conditions noted are these: Homo sapiens, MCF7, 120 h. This is another data set of the same source.
Description: Cytotoxicity against tamoxifen-resistant human MCF7 cells assessed as reduction in cell viability after 5 days by Coulter counting method
For data set [10], the target named is T1, Estrogen receptor (Homo sapiens, UniProt P03372).
T1 sequence (P03372 whole entry): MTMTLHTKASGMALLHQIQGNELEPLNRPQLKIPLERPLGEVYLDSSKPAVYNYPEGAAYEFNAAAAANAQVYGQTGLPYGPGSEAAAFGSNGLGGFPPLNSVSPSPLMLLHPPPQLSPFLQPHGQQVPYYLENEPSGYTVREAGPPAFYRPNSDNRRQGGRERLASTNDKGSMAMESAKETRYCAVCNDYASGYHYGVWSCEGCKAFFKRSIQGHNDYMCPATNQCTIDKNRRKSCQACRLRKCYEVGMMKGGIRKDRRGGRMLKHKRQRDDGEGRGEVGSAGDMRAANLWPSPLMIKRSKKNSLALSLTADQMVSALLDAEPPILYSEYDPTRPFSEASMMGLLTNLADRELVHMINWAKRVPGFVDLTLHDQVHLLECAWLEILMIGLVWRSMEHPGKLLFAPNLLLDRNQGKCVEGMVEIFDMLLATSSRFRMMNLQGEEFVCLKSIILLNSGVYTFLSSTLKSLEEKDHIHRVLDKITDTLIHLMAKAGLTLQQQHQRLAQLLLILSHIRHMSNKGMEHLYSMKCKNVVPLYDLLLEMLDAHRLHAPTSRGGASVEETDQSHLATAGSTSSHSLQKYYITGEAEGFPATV
The experiment in a line: Downregulation of ERalpha in human MCF7 cells after 4 hrs by Western blot analysis. The class given is cell-based. (In general: Immunoblotting shows a protein as a band on a membrane.)

Data set [11] concerns the target T1, Estrogen receptor. The experiment in a line: biochemical.
Description: Displacement of fluormone-labeled ES2 from recombinant full length human ERalpha ligand binding domain expressed in insect cells after 2 hrs by TR-FRET assay

Regarding `CC/C(=C(\c1ccccc1)c1ccc(/C=C/C(=O)O)cc1)c1ccc(O)cc1`, the Tmax (as a rule, the time from dosing to the highest level) in data set [1] stood at 3 h. In [2], the half-life (as a rule, the time in which the quantity being followed falls by half) is 7 h. Further, the Cmax (commonly the highest concentration seen after dosing) is 270 ng/mL in [3] and 560 ng/mL in [6]. The t1/2 in [4] worked out at 4.5 h. In addition, the AUC (in general, concentration integrated over time) stood at 3350 ng·h/mL in data set [5] and 8670 ng·h/mL in data set [7]. The IC50 (as a rule, the midpoint of a concentration-inhibition curve) in data set [8] was found to be 1900 nM; in data set [9], 1000 nM.

Regarding `CC/C(=C(\c1ccc(O)cc1)c1ccc(OCCN(C)C)cc1)c1ccccc1` [AFIMOXIFENE], the IC50 in [8] was determined as 3.4 nM; in data set [9], 20000 nM.

Regarding `CCC(=C(c1ccc(/C=C/C(=O)O)cc1)c1ccc(B(O)O)cc1)c1ccccc1`, the half-maximal inhibitory concentration (IC50) in [10] was determined as 210 nM; in data set [8] it was 1800 nM; in data set [9], 1200 nM; in [11] it was 1.14 nM. Besides, the Tmax in [1] was 1 h. The molecule also showed a half-life in [2] of 3.9 h. The molecule further displayed a Cmax in [3] of 3510 ng/mL. The AUC in [5] stood at 36900 ng·h/mL.
